The source of these data is patent US20220024906A1, “COMPOUNDS AND COMPOSITIONS FOR TREATING CONDITIONS ASSOCIATED WITH STING ACTIVITY” (IFM Due, Inc., priority 2020, published 2022).

T1 sequence (Q86WV6 whole entry R71H/G230A/H232R/R293Q): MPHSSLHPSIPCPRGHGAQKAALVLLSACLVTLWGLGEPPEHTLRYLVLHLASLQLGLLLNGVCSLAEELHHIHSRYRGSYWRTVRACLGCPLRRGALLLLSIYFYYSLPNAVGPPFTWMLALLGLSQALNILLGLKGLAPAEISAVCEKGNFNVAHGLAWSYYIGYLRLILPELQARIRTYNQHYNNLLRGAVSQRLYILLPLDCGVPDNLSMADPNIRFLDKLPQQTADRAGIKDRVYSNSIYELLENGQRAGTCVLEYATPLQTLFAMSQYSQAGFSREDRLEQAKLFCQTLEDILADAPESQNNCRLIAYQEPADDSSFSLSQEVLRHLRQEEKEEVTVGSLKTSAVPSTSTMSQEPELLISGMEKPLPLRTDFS

The assay addresses T1, hSTING (Homo sapiens, UniProt Q86WV6, G230A/H232R/R293Q/R71H).
T1 construct: host or cells: THP1-Dual KO-IFNAR2 cells
Description: STING reporter assay (luciferase) in THP1-Dual KO-IFNAR2 cells stimulated with 2′3′cGAMP. The assay is classed as cell-based. As to conditions: 15 μM 2′3′cGAMP transfected, 24 h, luciferase reporter activity. As for the experimental part:
STING pathway activation by the compounds described herein was measured using THP1-Dual™ cells (KO-IFNAR2).
THP1-Dual™ KO-IFNAR2 Cells (obtained from invivogen) were maintained in RPMI, 10% FCS, 5 ml P/S, 2 mM L-glut, 10 mM Hepes, and 1 mM sodium pyruvate. Compounds were spotted in empty 384 well tissue culture plates (Greiner 781182) by Echo for a final concentration of 0.0017-100 μM. Cells were plated into the TC plates at 40 μL per well, 2×10E6 cells/mL. For activation with STING ligand, 2′3′cGAMP (MW 718.38, obtained from Invivogen), was prepared in Optimem media.
The following solutions were prepared for each 1×384 plate: • Solution A: 2 mL Optimem with one of the following stimuli: • 60 μL of 10 mM 2′3′cGAMP→150 μM stock • Solution B: 2 mL Optimem with 60 μL Lipofectamine 2000→Incubate 5 min at RT
2 mL of solution A and 2 ml Solution B was mixed and incubated for 20 min at room temperature (RT). 20 μL of transfection solution (A+B) was added on top of the plated cells, with a final 2′3′cGAMP concentration of 15 μM. The plates were then centrifuged immediately at 340 g for 1 minute, after which they were incubated at 37° C., 5% CO2, >98% humidity for 24 h. Luciferase reporter activity was then measured. EC50 values were calculated by using standard methods known in the art.
Luciferase reporter assay: 10 μL of supernatant from the assay was transferred to white 384-plate with flat bottom and squared wells. One pouch of QUANTI-Luc™ Plus was dissolved in 25 mL of water. 100 μL of QLC Stabilizer per 25 mL of QUANTI-Luc™ Plus solution was added. 50 μL of QUANTI-Luc™ Plus/QLC solution per well was then added. Luminescence was measured on a Platereader (e.g., Spectramax I3X (Molecular Devices GF3637001)).
Luciferase reporter activity was then measured. EC50 values were calculated by using standard methods known in the art.
(In general: Reporter assays use an easily measured gene product as a stand-in for the process of interest.)
Compound `O=C(CCn1ccnc1)Nc1c[nH]c2ccc(-c3cnn(-c4ccc(C(F)(F)F)cc4)c3)cc12` [Compound 142, 3-(1H-imidazol-1-yl)-N-(5-(1-(4-(trifluoromethyl)phenyl)-1H-pyrazol-4-yl)-1H-indol-3-yl)propanamide] yielded an EC50 of 0.2 to 1 µM.
Compound `O=C(CCn1cccn1)Nc1c[nH]c2ccc(-c3cnn(-c4ccc(C(F)(F)F)cc4)c3)cc12` [Compound 143, 3-(1H-pyrazol-1-yl)-N-(5-(1-(4-(trifluoromethyl)phenyl)-1H-pyrazol-4-yl)-1H-indol-3-yl)propanamide] gave an EC50 of 0.2 to 1 µM.
`Cc1cc(CC(=O)Nc2c[nH]c3ccc(-c4cnn(-c5ccc(C(F)(F)F)cc5)c4)cc23)on1` [Compound 144, 2-(3-methylisoxazol-5-yl)-N-(5-(1-(4-(trifluoromethyl)phenyl)-1H-pyrazol-4-yl)-1H-indol-3-yl)acetamide] showed an EC50 of 0.2 to 1 µM.
The compound `O=C(Cc1ncc(F)cn1)Nc1c[nH]c2ccc(-c3cnn(-c4ccc(C(F)(F)F)cc4)c3)cc12` [Compound 145, 2-(5-fluoropyrimidin-2-yl)-N-(5-(1-(4-(trifluoromethyl)phenyl)-1H-pyrazol-4-yl)-1H-indol-3-yl)acetamide] yielded an EC50 of 0.2 to 1 µM.
The compound `Cn1cc(CC(=O)Nc2c[nH]c3ccc(-c4cnn(-c5ccc(C(F)(F)F)cc5)c4)cc23)cn1` [Compound 146, 2-(1-methyl-1H-pyrazol-4-yl)-N-(5-(1-(4-(trifluoromethyl)phenyl)-1H-pyrazol-4-yl)-1H-indol-3-yl)acetamide] registered an EC50 of 0.2 to 1 µM.
`O=C(CCc1ncccn1)Nc1c[nH]c2ccc(-c3cnn(-c4ccc(C(F)(F)F)cc4)c3)cc12` [Compound 147, 3-(pyrimidin-2-yl)-N-(5-(1-(4-(trifluoromethyl)phenyl)-1H-pyrazol-4-yl)-1H-indol-3-yl)propanamide] showed an EC50 of 0.2 to 1 µM.
`O=C(CCc1nccs1)Nc1c[nH]c2ccc(-c3cnn(-c4ccc(C(F)(F)F)cc4)c3)cc12` [Compound 148, 3-(thiazol-2-yl)-N-(5-(1-(4-(trifluoromethyl)phenyl)-1H-pyrazol-4-yl)-1H-indol-3-yl)propanamide] had an EC50 of 0.2 to 1 µM.
`O=C(Cc1ncc[nH]1)Nc1c[nH]c2ccc(-c3cnn(-c4ccc(C(F)(F)F)cc4)c3)cc12` [Compound 149, 2-(1H-imidazol-2-yl)-N-(5(1-(4-(trifluoromethyl)phenyl)-1H-pyrazol-4-yl)-1H-indol-3-yl)acetamide] had a concentration giving a half-maximal response (EC50) of 5 to 100 µM.
Turning to `Cc1nc(CC(=O)Nc2c[nH]c3ccc(-c4cnn(-c5ccc(C(F)(F)F)cc5)c4)cc23)n[nH]1` [Compound 150, 2-(5-methyl-1H-1,2,4-triazol-3-yl)-N-(5-(1-(4-(trifluoromethyl)phenyl)-1H-pyrazol-4-yl)-1H-indol-3-yl)acetamide], the EC50 is 1 to 5 µM.
For the compound `NC1(CC(=O)Nc2c[nH]c3ccc(-c4cnn(-c5ccc(C(F)(F)F)cc5)c4)cc23)CCCCC1` [Compound 151, 2-(1-aminocyclohexyl)-N-(5-(1-(4-(trifluoromethyl)phenyl)-1H-pyrazol-4-yl)-1H-indol-3-yl)acetamide], the EC50 was 1 to 5 µM.
For the compound `O=C(Nc1c[nH]c2ccc(-c3cnn(-c4ccc(C(F)(F)F)cc4)c3)cc12)[C@@H](O)C1CCCCC1` [Compound 152, (S)-2-cyclohexyl-2-hydroxy-N-(5-(1-(4-(trifluoromethyl)phenyl)-1H-pyrazol-4-yl)-1H-indol-3-yl)acetamide], the EC50 lay in the range of 1 to 5 µM.
The figure for `Cn1cnnc1CCC(=O)Nc1c[nH]c2ccc(-c3cnn(-c4ccc(C(F)(F)F)cc4)c3)cc12` [Compound 153, 3-(4-methyl-4H-1,2,4-triazol-3-yl)-N-(5-(1-(4-(trifluoromethyl)phenyl)-1H-pyrazol-4-yl)-1H-indol-3-yl)propanamide] is 1 to 5 µM; for `O=C(Nc1c[nH]c2ccc(-c3cnn(-c4ccc(C(F)(F)F)cc4)c3)cc12)C(O)c1ccccc1` (stereo not drawn) [Compound 154, 2-hydroxy-2-phenyl-N-(5-(1-(4-(trifluoromethyl)phenyl)-1H-pyrazol-4-yl)-1H-indol-3-yl)acetamide] it is 1 to 5 µM; for `O=C(CCN1CCCC1=O)Nc1c[nH]c2ccc(-c3cnn(-c4ccc(C(F)(F)F)cc4)c3)cc12` [Compound 155, 3-(2-oxopyrrolidin-1-yl)-N-(5-(1-(4-(trifluoromethyl)phenyl)-1H-pyrazol-4-yl)-1H-indol-3-yl)propanamide] it is 0.2 to 1 µM.
On to `C[C@H](C(=O)Nc1c[nH]c2ccc(-c3cnn(-c4ccc(C(F)(F)F)cc4)c3)cc12)N1CCCC1=O` [Compound 156, (R)-2-(2-oxopyrrolidin-1-yl)-N-(5-(1-(4-(trifluoromethyl)phenyl)-1H-pyrazol-4-yl)-1H-indol-3-yl)propanamide], for which the EC50 lay within 1 to 5 µM.
The figure for `O=C(CC1CC(F)(F)C1)Nc1c[nH]c2ccc(-c3cnn(-c4ccc(C(F)(F)F)cc4)c3)cc12` [Compound 157, 2-(3,3-difluorocyclobutyl)-N-(5-(1-(4-(trifluoromethyl)phenyl)-1H-pyrazol-4-yl)-1H-indol-3-yl)acetamide] is 0.2 to 1 µM.
For the compound `O=C(CS(=O)(=O)C1CC1)Nc1c[nH]c2ccc(-c3cnn(-c4ccc(C(F)(F)F)cc4)c3)cc12` [Compound 158, 2-(cyclopropylsulfonyl)-N-(5-(1-(4-(trifluoromethyl)phenyl)-1H-pyrazol-4-yl)-1H-indol-3-yl)acetamide], the EC50 was 0.2 to 1 µM.
The figure for `O=C(CCn1cncn1)Nc1c[nH]c2ccc(-c3cnn(-c4ccc(C(F)(F)F)cc4)c3)cc12` [Compound 159, 3-(1H-1,2,4-triazol-1-yl)-N-(5-(1-(4-(trifluoromethyl)phenyl)-1H-pyrazol-4-yl)-1H-indol-3-yl)propanamide] is 0.2 to 1 µM; for `Cc1noc(C)c1CC(=O)Nc1c[nH]c2ccc(-c3cnn(-c4ccc(C(F)(F)F)cc4)c3)cc12` [Compound 160, 2-(3,5-dimethylisoxazol-4-yl)-N-(5-(1-(4-(trifluoromethyl)phenyl)-1H-pyrazol-4-yl)-1H-indol-3-yl)acetamide] it is 1 to 5 µM; for `O=C(CN1CCOC1=O)Nc1c[nH]c2ccc(-c3cnn(-c4ccc(C(F)(F)F)cc4)c3)cc12` [Compound 161, 2-(2-oxooxazolidin-3-yl)-N-(5-(1-(4-(trifluoromethyl)phenyl)-1H-pyrazol-4-yl)-1H-indol-3-yl)acetamide] it is 0.2 to 1 µM.
On to `O=C(CC1(O)CCC1)Nc1c[nH]c2ccc(-c3cnn(-c4ccc(C(F)(F)F)cc4)c3)cc12` [Compound 162, 2-(1-hydroxycyclobutyl)-N-(5-(1-(4-(trifluoromethyl)phenyl)-1H-pyrazol-4-yl)-1H-indol-3yl)acetamide], for which the 50% effective concentration (EC50) was in the range of 0.2 to 1 µM.
`COC1(CC(=O)Nc2c[nH]c3ccc(-c4cnn(-c5ccc(C(F)(F)F)cc5)c4)cc23)CCC1` [Compound 163, 2-(1-methoxycyclobutyl)-N-(5-(1-(4-(trifluoromethyl)phenyl)-1H-pyrazol-4-yl)-1H-indol-3-yl)acetamide] showed an EC50 of 0.2 to 1 µM.
The figure for `O=C(Cn1cncn1)Nc1c[nH]c2ccc(-c3cnn(-c4ccc(C(F)(F)F)cc4)c3)cc12` [Compound 164, 2-(1H-1,2,4-triazol-1-yl)-N-(5-(1-(4-(trifluoromethyl)phenyl)-1H-pyrazol-4-yl)-1H-indol-3yl)acetamide] is 1 to 5 µM.
Regarding `Cc1nc(CC(=O)Nc2c[nH]c3ccc(-c4cnn(-c5ccc(C(F)(F)F)cc5)c4)cc23)cs1` [Compound 165, 2-(2-methylthiazol-4-yl)-N-(5-(1-(4-(trifluoromethyl)phenyl)-1H-pyrazol-4-yl)-1H-indol-3-yl)acetamide], the EC50 fell in the range of 0.2 to 1 µM.
Regarding `O=C(CN1CCCC1=O)Nc1c[nH]c2ccc(-c3cnn(-c4ccc(C(F)(F)F)cc4)c3)cc12` [Compound 166, 2-(2-oxopyrrolidin-1-yl)-N-(5-(1-(4-(trifluoromethyl)phenyl)-1H-pyrazol-4-yl)-1H-indol-3-yl)acetamide], the EC50 is 1 to 5 µM.
With `O=C(CCN1CCOC1=O)Nc1c[nH]c2ccc(-c3cnn(-c4ccc(C(F)(F)F)cc4)c3)cc12` [Compound 167, 3-(2-oxooxazolidin-3-yl)-N-(5-(1-(4-(trifluoromethyl)phenyl)-1H-pyrazol-4-yl)-1H-indol-3-yl)propanamide], the EC50 was in the range of 0.2 to 1 µM.
With `Cn1ccc(CC(=O)Nc2c[nH]c3ccc(-c4cnn(-c5ccc(C(F)(F)F)cc5)c4)cc23)n1` [Compound 168, 2-(1-methyl-1H-pyrazol-3-yl)-N-(5-(1-(4-(trifluoromethyl)phenyl)-1H-pyrazol-4-yl)-1H-indol-3-yl)acetamide], the EC50 lay within 0.2 to 1 µM.

One may read the EC50 as the concentration needed to bring the measured effect to its halfway point. Low readings indicate higher potency in that assay, high ones lower potency in that assay.
